Test results as given in ChEMBL document CHEMBL3739356, “Combination of 4-anilinoquinazoline, arylurea and tertiary amine moiety to discover novel anticancer agents” (Bioorg Med Chem, 2016).
The source made the active and inactive calls. No cut-off for these calls is given here.

Legend:
A-431 = experiment: Antiproliferative activity against human A431 cells after 72 hrs by MTT assay; format: functional, cell-based; conditions: A-431, 72 h
A549 [1] = experiment: Antiproliferative activity against human A549 cells after 72 hrs by MTT assay; format: functional, cell-based; conditions: A549, 72 h
[2] = target: Epidermal growth factor receptor (Homo sapiens, UniProt P00533); experiment: Inhibition of wild-type EGFR tyrosine kinase (unknown origin) assessed as ATP level by luminescence analysis
Sequence of Epidermal growth factor receptor (Homo sapiens, UniProt P00533) (P00533 whole entry): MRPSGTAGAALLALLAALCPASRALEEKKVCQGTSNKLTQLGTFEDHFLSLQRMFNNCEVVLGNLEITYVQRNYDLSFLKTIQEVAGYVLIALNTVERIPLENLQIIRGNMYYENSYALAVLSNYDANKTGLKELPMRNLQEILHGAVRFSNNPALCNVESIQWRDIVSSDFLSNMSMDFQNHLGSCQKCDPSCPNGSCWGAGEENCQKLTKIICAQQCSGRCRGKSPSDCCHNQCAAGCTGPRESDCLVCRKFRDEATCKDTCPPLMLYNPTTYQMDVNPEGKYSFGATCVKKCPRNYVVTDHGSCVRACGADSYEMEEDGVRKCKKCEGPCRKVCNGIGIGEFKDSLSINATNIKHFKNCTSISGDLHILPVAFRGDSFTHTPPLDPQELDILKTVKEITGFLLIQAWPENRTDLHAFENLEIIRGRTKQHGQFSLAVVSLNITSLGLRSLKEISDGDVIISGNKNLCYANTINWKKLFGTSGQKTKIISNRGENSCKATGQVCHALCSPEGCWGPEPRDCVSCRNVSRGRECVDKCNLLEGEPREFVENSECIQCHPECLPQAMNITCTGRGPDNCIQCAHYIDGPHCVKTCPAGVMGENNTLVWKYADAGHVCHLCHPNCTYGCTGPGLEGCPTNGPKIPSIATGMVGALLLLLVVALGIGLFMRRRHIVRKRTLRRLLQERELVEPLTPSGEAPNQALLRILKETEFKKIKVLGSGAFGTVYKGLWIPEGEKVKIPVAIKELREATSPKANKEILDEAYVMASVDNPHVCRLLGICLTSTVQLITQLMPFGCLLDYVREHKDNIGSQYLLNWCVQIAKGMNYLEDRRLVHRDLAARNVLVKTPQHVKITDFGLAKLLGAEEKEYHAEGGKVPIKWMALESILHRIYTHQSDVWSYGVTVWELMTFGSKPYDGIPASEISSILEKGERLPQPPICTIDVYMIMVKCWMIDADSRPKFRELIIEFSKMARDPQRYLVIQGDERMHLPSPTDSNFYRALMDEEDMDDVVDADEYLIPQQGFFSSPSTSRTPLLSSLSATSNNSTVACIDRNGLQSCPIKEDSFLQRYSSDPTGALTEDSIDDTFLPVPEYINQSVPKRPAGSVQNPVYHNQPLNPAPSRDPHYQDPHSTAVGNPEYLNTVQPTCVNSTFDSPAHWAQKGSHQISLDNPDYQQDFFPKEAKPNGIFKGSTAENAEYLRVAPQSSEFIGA

[3] = target: Epidermal growth factor receptor (Homo sapiens, UniProt P00533, L858R); experiment: Inhibition of EGFR tyrosine kinase L858R mutant (unknown origin) assessed as ATP level by luminescence analysis; format: protein assay
Sequence of Epidermal growth factor receptor (Homo sapiens, UniProt P00533, L858R) (P00533 25-1210 L858R limits assumed): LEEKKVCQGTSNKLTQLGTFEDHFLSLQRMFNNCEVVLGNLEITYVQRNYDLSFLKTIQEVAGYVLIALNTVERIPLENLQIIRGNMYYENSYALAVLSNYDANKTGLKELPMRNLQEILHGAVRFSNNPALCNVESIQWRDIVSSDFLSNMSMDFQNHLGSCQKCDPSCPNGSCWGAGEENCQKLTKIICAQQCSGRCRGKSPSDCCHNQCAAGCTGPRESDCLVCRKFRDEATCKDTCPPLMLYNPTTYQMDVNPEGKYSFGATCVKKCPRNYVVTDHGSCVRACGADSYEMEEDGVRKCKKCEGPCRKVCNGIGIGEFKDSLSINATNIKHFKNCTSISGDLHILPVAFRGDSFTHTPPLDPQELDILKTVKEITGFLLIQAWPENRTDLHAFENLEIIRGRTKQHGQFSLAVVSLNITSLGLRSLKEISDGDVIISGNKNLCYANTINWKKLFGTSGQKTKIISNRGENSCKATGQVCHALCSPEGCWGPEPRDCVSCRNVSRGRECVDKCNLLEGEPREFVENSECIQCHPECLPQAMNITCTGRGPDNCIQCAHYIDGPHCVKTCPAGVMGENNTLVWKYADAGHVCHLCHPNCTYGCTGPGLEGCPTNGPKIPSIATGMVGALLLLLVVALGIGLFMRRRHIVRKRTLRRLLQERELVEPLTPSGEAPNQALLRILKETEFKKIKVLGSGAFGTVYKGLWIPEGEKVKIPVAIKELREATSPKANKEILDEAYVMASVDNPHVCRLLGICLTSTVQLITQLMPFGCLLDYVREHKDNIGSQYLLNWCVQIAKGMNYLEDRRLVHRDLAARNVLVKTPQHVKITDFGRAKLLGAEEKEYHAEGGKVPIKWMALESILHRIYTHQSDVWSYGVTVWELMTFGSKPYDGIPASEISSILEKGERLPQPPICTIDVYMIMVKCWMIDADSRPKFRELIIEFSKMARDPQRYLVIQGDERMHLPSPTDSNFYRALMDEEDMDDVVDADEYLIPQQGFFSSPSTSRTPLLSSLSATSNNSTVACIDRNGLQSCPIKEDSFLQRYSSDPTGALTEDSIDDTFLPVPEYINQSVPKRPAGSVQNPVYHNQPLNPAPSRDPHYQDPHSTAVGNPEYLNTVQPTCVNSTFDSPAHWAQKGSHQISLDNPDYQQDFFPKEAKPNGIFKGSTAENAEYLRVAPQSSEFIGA

[4] = target: Vascular endothelial growth factor receptor 2 (Homo sapiens, UniProt P35968); experiment: Inhibition of VEGFR-2 (unknown origin) assessed as ATP level by luminescence analysis
Sequence of Vascular endothelial growth factor receptor 2 (P35968 whole entry): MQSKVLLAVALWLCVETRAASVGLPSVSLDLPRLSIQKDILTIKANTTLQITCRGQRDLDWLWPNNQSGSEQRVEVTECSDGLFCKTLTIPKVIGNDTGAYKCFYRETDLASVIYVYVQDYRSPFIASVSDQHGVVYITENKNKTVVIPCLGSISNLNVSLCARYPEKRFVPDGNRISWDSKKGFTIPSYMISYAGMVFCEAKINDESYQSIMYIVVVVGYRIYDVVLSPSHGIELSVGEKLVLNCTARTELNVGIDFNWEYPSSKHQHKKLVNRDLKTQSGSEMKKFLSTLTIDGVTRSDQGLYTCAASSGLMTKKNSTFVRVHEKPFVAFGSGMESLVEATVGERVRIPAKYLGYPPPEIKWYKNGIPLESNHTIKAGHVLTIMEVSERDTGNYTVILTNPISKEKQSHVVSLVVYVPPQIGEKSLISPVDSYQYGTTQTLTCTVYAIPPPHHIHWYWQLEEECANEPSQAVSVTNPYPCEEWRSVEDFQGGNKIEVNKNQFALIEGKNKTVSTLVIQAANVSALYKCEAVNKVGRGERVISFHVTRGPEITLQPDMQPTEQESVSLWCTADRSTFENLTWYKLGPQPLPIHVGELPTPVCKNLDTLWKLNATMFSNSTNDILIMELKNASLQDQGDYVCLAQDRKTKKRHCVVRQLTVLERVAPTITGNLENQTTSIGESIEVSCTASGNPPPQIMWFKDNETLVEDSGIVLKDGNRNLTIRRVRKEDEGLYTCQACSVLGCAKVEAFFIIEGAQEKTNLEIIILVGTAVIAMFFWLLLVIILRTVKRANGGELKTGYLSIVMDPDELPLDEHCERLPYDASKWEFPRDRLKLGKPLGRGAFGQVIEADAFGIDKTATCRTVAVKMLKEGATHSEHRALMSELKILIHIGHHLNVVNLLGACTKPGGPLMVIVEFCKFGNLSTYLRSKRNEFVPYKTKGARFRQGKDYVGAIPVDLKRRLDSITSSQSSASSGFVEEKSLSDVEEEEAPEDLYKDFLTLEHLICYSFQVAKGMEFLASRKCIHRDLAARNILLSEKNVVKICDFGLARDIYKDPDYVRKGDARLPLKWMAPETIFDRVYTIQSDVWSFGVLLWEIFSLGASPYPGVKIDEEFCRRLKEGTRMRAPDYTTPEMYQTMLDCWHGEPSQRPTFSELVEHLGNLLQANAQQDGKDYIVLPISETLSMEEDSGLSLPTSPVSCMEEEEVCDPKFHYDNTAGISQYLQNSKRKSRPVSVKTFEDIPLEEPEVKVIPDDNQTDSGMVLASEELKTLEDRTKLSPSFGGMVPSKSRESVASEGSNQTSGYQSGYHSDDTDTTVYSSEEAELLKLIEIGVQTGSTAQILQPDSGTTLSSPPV

A549 [5] = experiment: Anticancer activity against human A549 cells xenografted in nude BALB/C mouse assessed as decrease in tumor volume at 50 mg/kg, po qd for 12 days; format: functional, organism-based
Mus musculus = experiment: Toxicity in nude BALB/C mouse assessed as weight loss at 50 mg/kg, po qd for 12 days; format: organism-based; conditions: in vivo, 288 h

| Structure (SMILES) | IC50 (A-431) [µM] | IC50 (A549 [1]) [µM] | other results |
| --- | --- | --- | --- |
| C#Cc1cccc(Nc2ncnc3ccc(NC(=O)Nc4ccc(C(=O)N5CCN(C)CC5)cc4)cc23)c1 | > 10 | > 10 |  |
| O=C(Nc1ccc(CN2CCCCC2)cc1)Nc1ccc2ncnc(Nc3cccc(C(F)(F)F)c3)c2c1 | 1.55 | 1.05 | IC50 [2]: 0.005 µM; IC50 [3]: 0.0105 µM |
| C[C@@H](Nc1ncnc2ccc(NC(=O)NCCN3CCN(C)CC3)cc12)c1ccccc1 | > 10 | > 10 |  |
| CN1CCN(Cc2ccc(NC(=O)Nc3ccc4ncnc(Nc5cccc(C(F)(F)F)c5)c4c3)cc2)CC1 | 2.41 | 1.65 |  |
| CN1CCN(C(=O)c2ccc(NC(=O)Nc3ccc4ncnc(Nc5ccc(OCc6cccc(F)c6)c(Cl)c5)c4c3)cc2)CC1 | > 10 | 7.39 |  |
| CN1CCN(Cc2ccc(NC(=O)Nc3ccc4ncnc(Nc5ccc(OCc6cccc(F)c6)c(Cl)c5)c4c3)cc2)CC1 | 0.64 | 0.9 | IC50 [4]: > 1 µM |
| C#Cc1cccc(Nc2ncnc3ccc(NC(=O)Nc4ccc(CN5CCOCC5)cc4)cc23)c1 | > 10 | > 10 |  |
| C#Cc1cccc(Nc2ncnc3ccc(NC(=O)Nc4ccc(CN5CCN(C)CC5)cc4)cc23)c1 | 2.81 | 5.17 |  |
| COc1ccc(Nc2ncnc3ccc(NC(=O)Nc4ccc(CN5CCN(C)CC5)cc4)cc23)cc1Cl | 2.01 | 3.57 |  |
| Cc1ccc(NC(=O)Nc2ccc3ncnc(Nc4cccc(C(F)(F)F)c4)c3c2)cc1 | > 10 | 4.14 |  |
| CN(C)Cc1ccc(NC(=O)Nc2ccc3ncnc(Nc4cccc(C(F)(F)F)c4)c3c2)cc1 | 1.03 | 1.12 |  |
| O=C(Nc1ccc(CN2CCCC2)cc1)Nc1ccc2ncnc(Nc3cccc(C(F)(F)F)c3)c2c1 | 1.36 | 0.83 | IC50 [2]: 0.0041 µM; IC50 [3]: 0.0115 µM; IC50 [4]: 0.565 µM; Activity (A549 [5]): Active; Activity (Mus musculus): Non-toxic |
| COc1cc2ncnc(Nc3ccc(F)c(Cl)c3)c2cc1OCCCN1CCOCC1 [GEFITINIB] |  |  | Activity (A549 [5]): Active; Activity (Mus musculus): Non-toxic |
| O=C(Nc1cccc(CN2CCCCC2)c1)Nc1ccc2ncnc(Nc3cccc(C(F)(F)F)c3)c2c1 | 1.33 | 1.06 |  |
| CN1CCN(c2ccc(NC(=O)Nc3ccc4ncnc(Nc5cccc(C(F)(F)F)c5)c4c3)cc2)CC1 | 2.2 | 2.76 |  |

Second part, led by results:

| IC50 (A-431) [µM] | IC50 (A549 [1]) [µM] | Structure (SMILES) | other results |
| --- | --- | --- | --- |
| 4.95 | 9.47 | COc1ccc(NC(=O)Nc2ccc3ncnc(Nc4cccc(C(F)(F)F)c4)c3c2)cc1 |  |
| > 10 | 8.31 | CN1CCN(C(=O)c2ccc(NC(=O)Nc3ccc4ncnc(Nc5cccc(C(F)(F)F)c5)c4c3)cc2)CC1 |  |
| > 10 | > 10 | CN1CCN(Cc2ccc(NC(=O)Nc3ccc4ncnc(Nc5ccc(F)c(F)c5)c4c3)cc2)CC1 |  |
| > 10 | > 10 | CN1CCN(CCNC(=O)Nc2ccc3ncnc(Nc4cccc(C(F)(F)F)c4)c3c2)CC1 |  |
| > 10 | > 10 | O=C(Nc1ccc(C(=O)N2CCOCC2)cc1)Nc1ccc2ncnc(Nc3ccc(F)c(Cl)c3)c2c1 |  |
| > 10 | > 10 | CN1CCN(C(=O)c2ccc(NC(=O)Nc3ccc4ncnc(Nc5ccc(F)c(Cl)c5)c4c3)cc2)CC1 |  |
| 3.98 | 2.07 | CCN(CC)Cc1ccc(NC(=O)Nc2ccc3ncnc(Nc4cccc(C(F)(F)F)c4)c3c2)cc1 |  |
| > 10 | > 10 | O=C(Nc1ccccc1)Nc1ccc2ncnc(Nc3cccc(C(F)(F)F)c3)c2c1 |  |
| 8.49 | 4.03 | O=C(Nc1ccc(CN2CCOCC2)cc1)Nc1ccc2ncnc(Nc3cccc(C(F)(F)F)c3)c2c1 |  |
| 1.23 | 0.86 | O=C(Nc1cccc(CN2CCCC2)c1)Nc1ccc2ncnc(Nc3cccc(C(F)(F)F)c3)c2c1 |  |
| 6.46 | 3.52 | CCN(CC)c1ccc(NC(=O)Nc2ccc3ncnc(Nc4cccc(C(F)(F)F)c4)c3c2)cc1 |  |
| 5.63 | > 10 | COC(=O)c1cccc(Nc2ncnc3ccc(NC(=O)Nc4ccc(CN5CCN(C)CC5)cc4)cc23)c1 |  |
| > 10 | > 10 | CN1CCN(Cc2ccc(NC(=O)Nc3ccc4ncnc(Nc5cccc(C(=O)N6CCCC6)c5)c4c3)cc2)CC1 |  |
| 4 | 3.48 | CN1CCN(Cc2ccc(NC(=O)Nc3ccc4ncnc(Nc5ccc(F)c(Cl)c5)c4c3)cc2)CC1 |  |
| > 10 | > 10 | C[C@@H](Nc1ncnc2ccc(NC(=O)Nc3ccc(CN4CCN(C)CC4)cc3)cc12)c1ccccc1 |  |
| 1.24 | 2.25 | C#Cc1cccc(Nc2ncnc3ccc(NC(=O)Nc4ccc(CN(CC)CC)cc4)cc23)c1 |  |
